{
  "source": "patent US20250002435A1",
  "about": "“ARYLATED FENCHONE DERIVATIVES, COMPOSITIONS COMPRISING THEM, PROCESSES FOR THEIR PREPARATION AND USES THEREOF” (priority 2021, published 2025)",
  "key": {"CNR2": {"molecular_target": "CNR2 (Homo sapiens (Human), UniProt P34972)", "experiment": "cAMP Hunter agonist assay, CHO-K1 cells expressing CB2", "assay_type": "cell-based", "settings": "for EC50: cells expressing CNR2; for agonist response CNR2: cells expressing CNR2, cAMP", "protocol": "(§1) Cannabinoid receptors belong to G-protein-coupled receptors which may transduce intracellular agonist-antagonist responses regulating in part levels of cAMP within the cells. Fenchone derivates were assayed using Eurofins proprietary assays (i.e. CB1-Antagonist Catalog #86-0007P-2277AN; CB2-Antagonist Catalog ref. 86-0007P-2818AN; CB1-Agonist; Catalog #86-0007P-2277AG; CB2-Agonist-Catalog #86-0007P-2818AG).\n(§2) Similarly, for agonist activity, cAMP Hunter™ Gs cell lines overexpress naturally Gs coupled, wild type GPCRs and are designed to detect increases in intracellular cAMP levels in response to agonist stimulation of the receptor. These cell lines are designed to be used in conjunction with the HitHunter® cAMP Assay Detection Kit. For both assays, human CB1 or CB2 receptors were stably transfected CHO-K1 cells and subjected to positive controls, known to activate the increase of cAMP for both receptors (Agonist control 20 μM Forskolin for CB1 and 25 μM Forskolin for CB2) or inhibit cAMP intracellular levels of CB1 ([…] CP55940) or CB2 ([…] CP55940). Cells were seeded in a total volume of 20 μL into white walled, 384-well microplates and incubated at 37° C. overnight. Prior to testing cell plating media was exchanged with 10 uL of Assay buffer (HBSS+10 mM HEPES). Five 5 μL of agonist (test sample, vehicle or positive control) were added to cells and incubated at 37° C. for 30 minutes. Final assay vehicle concentration was 1% and the results are expressed in relation to the control ligand."}, "hCB2R": {"molecular_target": "hCB2R (Homo sapiens (Human), UniProt P34972)", "sequence (P34972 whole entry)": "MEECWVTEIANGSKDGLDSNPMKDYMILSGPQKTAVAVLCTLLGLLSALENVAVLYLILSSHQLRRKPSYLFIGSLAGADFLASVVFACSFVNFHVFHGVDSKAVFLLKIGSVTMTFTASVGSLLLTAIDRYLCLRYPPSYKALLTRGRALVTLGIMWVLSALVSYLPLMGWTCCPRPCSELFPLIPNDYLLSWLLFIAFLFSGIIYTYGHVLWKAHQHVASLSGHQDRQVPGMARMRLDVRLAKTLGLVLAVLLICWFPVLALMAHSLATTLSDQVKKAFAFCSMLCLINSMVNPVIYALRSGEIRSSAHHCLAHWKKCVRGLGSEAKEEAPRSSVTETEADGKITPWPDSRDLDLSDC", "experiment": "[35S]GTPγS binding assay, hCB2R CHO cell membranes", "assay_type": "biochemical", "settings": "for functional activity at hCB2R (agonist / inverse agonist): [35S]GTPγS binding; for EC50: [35S]GTPγS binding to hCB2R, two independent experiments in triplicate; for E(max) %: percentage of HU-308 response at 1 μM", "protocol": "Functional Characterization.\nThe method used for measuring agonist-stimulated binding of [^35S]GTPγS was based on a described protocol. The assays were carried out with GTPγS assay buffer (50 mM Tris HCl (pH 7.4), 0.2 mM EGTA, 9 mM MgCl2, 150 mM NaCl, 1 mg/ml BSA). Briefly, membranes (5 μg protein) were incubated in assay buffer containing 100 μM GDP, 0.05 nM [^35S]GTPγS, test compounds at various concentrations in siliconized glass tubes. Bound ligand was separated from free ligand by vacuum filtration. Nonspecific binding was determined using 10 μM GTPS. Basal binding was assayed in the absence of the ligand and in the presence of GDP."}, "[1]": {"tested_on": "zymosan-induced hyperalgesia", "experiment": "zymosan mouse paw inflammatory pain model, von Frey test, with or without CB2 antagonists", "assay_type": "in vivo", "settings": "for von Frey pain effect: SR144528 experiment, 25 mg/kg IP", "protocol": "To induce inflammation, 40 μL of 1.5% (w/v) zymosan A (Sigma) suspended in 0.9% saline was injected into the sub-planter surface of the right hind paw of the mice. Immediately after zymosan injection, antagonists were injected intraperitoneally (IP) and after 30 minutes, the fenchone derivatives dissolved in 0.1 mL vehicle containing ethanol:Cremophore:saline at a ratio of 1:1:18 were injected. Control mice were injected with the vehicle only. After 2, 6, and 24 hrs, paw swelling, and pain perception were measured.\nSpecifically, measurement of Oedema Formation was assessed by monitoring paw swelling via calibrated calipers (0.01 mm), 6 and 24 hrs following injections of zymosan alone and/or the test compounds. Pain hyperalgesia was evaluated by the paw withdrawal von Frey test at 6, and 24 h following injections of zymosan and/or the test compounds. […] In this study, only 1.4-60 g corresponding to 4.17 to 5.88 log of force was used, to test the mouse sensitivity to a mechanical stimulus on the swollen paw. The measurements were performed in a quiet room. Before paw pain measurements, the animals were held for 10 sec. The trained investigator applied the filament to the central area of the hind paw with gradual increasing size. The test consisted of poking the middle of the hind paw to provoke a flexion reflex followed by a clear flinch response after paw withdrawal. Each one of the von Frey filaments was applied for approximately 3-4 s to induce the end-point reflex. The first testing was done by using the force filament of 1.4 g. If there was no withdrawal response, the next higher stimulus was tried. The mechanical threshold force (in grams (g)) was defined as the lowest force imposed by two von Frey monofilaments of various sizes, required to produce a paw retraction. The untreated left hind paw served as a control."}, "mCB1R": {"molecular_target": "mCB1R (Mus musculus (Mouse), UniProt P47746)", "sequence (P47746 whole entry)": "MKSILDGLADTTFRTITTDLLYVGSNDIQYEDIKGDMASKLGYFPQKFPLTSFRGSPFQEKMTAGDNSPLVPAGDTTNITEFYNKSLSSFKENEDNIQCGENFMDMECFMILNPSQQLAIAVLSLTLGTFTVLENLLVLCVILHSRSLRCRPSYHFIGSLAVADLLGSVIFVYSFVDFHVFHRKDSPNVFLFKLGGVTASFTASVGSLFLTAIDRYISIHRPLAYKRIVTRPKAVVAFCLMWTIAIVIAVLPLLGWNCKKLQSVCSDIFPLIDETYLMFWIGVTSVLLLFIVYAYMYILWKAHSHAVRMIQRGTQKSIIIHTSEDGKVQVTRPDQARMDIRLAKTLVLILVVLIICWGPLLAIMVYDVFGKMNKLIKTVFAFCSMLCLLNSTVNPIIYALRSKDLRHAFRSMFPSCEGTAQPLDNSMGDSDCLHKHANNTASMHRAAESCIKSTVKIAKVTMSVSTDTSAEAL", "experiment": "[3H]CP-55,940 competition displacement binding, crude membranes from mouse brain", "settings": "for Ki: displacement of [3H]CP-55,940, NB = No binding detected at concentrations up to 10 μM, read-out: Ki (nM) mCB1R", "protocol": "Affinity for Cannabinoid Receptors. The compounds were further characterized using a radioligand binding assay to determine their affinities for CB1R and CB2R based on each test compound's ability to displace the radiolabeled CB1R/CB2R agonist CP-55,940 from membranes prepared from a mouse brain (a source of CB1R) and membranes of cells expressing the human CB2R. […] Therefore, the compounds were assayed using membranes from CHO-K1 cells expressing the human CB2R (hCB2R).\nMembranes from cells expressing human CB2R were purchased from Charles River, (Cat #A308; Ohio, US). Solutions of test compounds ranging from 0.1 nM to 10 mM were prepared in DMSO. The desired amount of membrane preparation was diluted with ice-cold assay buffer (50 mM Tris-HCl, 2.5 mM EDTA, 5 mM MgCl2, 0.1% BSA, pH 7.4) and was vortexed. […] The assays were incubated for 90 minutes at 30° C. and then immediately filtered on WHATMAN GF/B FilterPaper (Fired) using a Brandel M-24R Harvester followed by six washes with ice cold wash buffer (50 mM Tris-HCl, 2.5 mM EDTA, 5 mM MgCl2, 0.1% BSA, pH 7.4). Radioactivity was detected by adding the FilterPaper directly to the ULTIMA GOLD scintillation cocktail (PerkinElmer), incubation at 20° C. for 60 min and then counted using a Tri-Carb 4910TR liquid scintillation counter."}, "CNR1": {"molecular_target": "CNR1 (Homo sapiens (Human), UniProt P21554)", "experiment": "cAMP Hunter agonist assay, CHO-K1 cells expressing CB1", "assay_type": "cell-based", "protocol": "as §1\nas §2, with “Five 5 μL of agonist (test sample, vehicle or positive control) were added to cells and incubated at 37° C. for 30 minutes. Final assay vehicle concentration was 1% and the results are expressed in relation to the control ligand.” left out"}},
  "note": "Values joined by “and” are separate entries in the source; they are usually repeats but may differ in a detail not shown here. Identical values can stand only once.",
  "data": [
    {"smiles": "CCCCCc1cc(OC)c(C2(O)C3(C)CCC(C3)C2(C)C)c(OC)c1", "note": "(single isomer, unassigned) [Compound 1b, 2-(2,6′-dimethoxy-4′-pentylphenyl)-1,3,3-trimethylbicyclo[2.2.1]heptan-2-ol]", "values": [
      {"measurement": "EC50", "setting": "CNR2", "result": 50, "unit": "nM"},
      {"measurement": "agonist response CNR2", "setting": "CNR2", "result": "noticeable response"},
      {"measurement": "functional activity at hCB2R (agonist / inverse agonist)", "setting": "hCB2R", "result": "agonist"},
      {"measurement": "EC50", "setting": "hCB2R", "result": 11.6, "unit": "nM"},
      {"measurement": "E(max) %", "setting": "hCB2R", "result": 65.1, "unit": "%"},
      {"measurement": "von Frey pain effect", "setting": "[1]", "result": "insignificant"},
      {"measurement": "Ki", "setting": "mCB1R", "result": 2290, "unit": "nM"},
      {"measurement": "inhibition of [3H]CP-55,940 binding to mCB1R", "setting": "mCB1R; in words", "result": "no detectable inhibition"},
      {"measurement": "agonist response CNR1", "setting": "CNR1", "result": "no response"}
    ]},
    {"smiles": "CCCCCCC(C)(C)c1cc(OC)c([C@]2(O)C3(C)CCC(C3)C2(C)C)c(OC)c1", "note": "(stereo partly drawn) [Compound 1d, 2-(2,6′-dimethoxy-4′-(2″-methyloctan-2″-yl)phenyl)-1,3,3-trimethyl-bicyclo[2.2.1]heptan-2-ol]", "values": [
      {"measurement": "EC50", "setting": "CNR2", "result": 10, "unit": "nM"},
      {"measurement": "agonist response CNR2", "setting": "CNR2", "result": "noticeable response"},
      {"measurement": "functional activity at hCB2R (agonist / inverse agonist)", "setting": "hCB2R", "result": "agonist"},
      {"measurement": "EC50", "setting": "hCB2R", "result": "2.6 nM and 2.59 nM"},
      {"measurement": "E(max) %", "setting": "hCB2R", "result": 89.63, "unit": "%"},
      {"measurement": "von Frey pain phenotype", "setting": "[1]; 25 mg/kg IP alone, AM630 experiment", "result": "significant affect"},
      {"measurement": "von Frey pain effect", "setting": "[1]", "result": "insignificant"},
      {"measurement": "Ki", "setting": "mCB1R", "result": 427, "unit": "nM"},
      {"measurement": "agonist response CNR1", "setting": "CNR1", "result": "no response"}
    ]}
  ]
}
